Article PMC9691367, “The PROTAC selectively degrading Bcl-xL represents a novel Hedgehog pathway inhibitor with capacity of combating resistance to Smoothened inhibitors while sparing bone growth” (Theranostics, 2022)
Values belong to the compound of their own block, whether it stands above or below them. Peptide text beside a SMILES is read from it. * marks the point of attachment. Cbz = O=C(OCc1ccccc1)*

How the values were obtained:
platelets = assay: Platelet toxicity assay in C57BL/6J mice; type: in vivo, mouse; settings: SIAIS361034 single i.p. 50 and 100 mg/kg, ABT-263 single p.o. 100 mg/kg, 8 h and 24 h
Source text: Blood was collected at different time points via retro-orbital bleeding in anticoagulation tube. Platelets or different blood cells were enumerated using BM800 blood analyzer (Bowlinman Sunshine).

Bcl-xL = target: T1, Bcl-xL (Mus musculus, UniProt Q64373); assay: Western blot of Bcl-xL degradation in NIH-3T3 cells; type: cell-based; settings: for effect of pretreatment on SIAIS361034-induced Bcl-xL degradation: pretreated 2 h with ABT-263 1 µM, Pomalidomide 10 µM or MG132 1 µM, then SIAIS361034 24 h
T1 construct: endogenous in cells; host or cells: NIH-3T3
T1 sequence (Q64373 whole entry): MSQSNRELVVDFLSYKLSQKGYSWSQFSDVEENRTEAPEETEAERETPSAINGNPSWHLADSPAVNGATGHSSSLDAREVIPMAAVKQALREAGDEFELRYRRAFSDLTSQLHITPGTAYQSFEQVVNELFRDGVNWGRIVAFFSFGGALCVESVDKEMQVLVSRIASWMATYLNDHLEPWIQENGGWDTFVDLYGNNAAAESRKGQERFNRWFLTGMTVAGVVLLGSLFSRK
Protocol: (§1) Cells were lysed in cell lysis buffer (50 mM Tris pH 8.0, 150 mM NaCl, 10% glycerol, 1 mM EDTA, 50 mM NaF, and 0.1% NP-40) supplemented with protease and phosphatase inhibitors. Total protein extracts of tissues were generated in radioimmunoprecipitation (RIPA) assay lysis buffer containing complete protease and phosphatase inhibitor cocktail. Protein content was quantified using the Pierce BCA Protein Assay Kit (#23225, Thermo Fisher Scientific). The proteins were separated by SDS-PAGE, electrophoretically transferred to polyvinylidene difluoride (PVDF) blotting membranes (#LC2002, Thermo Fisher Scientific), and subjected to routine immunoblot analysis with primary antibodies as follows: anti-Bcl-2 (#15071), anti-Mcl-1 (#94296), anti-VHL (#68547), anti-CRBN (#71810), and anti-Sufu (#2522) were obtained from Cell Signaling Technology (Danvers, Massachusetts, USA); anti-Bcl-xL (#ab32370), anti-Gli1 (#ab134906), and anti-Smoothened (#ab236465) were obtained from Abcam (Cambridge, CB2 0AX, UK); anti-GAPDH (#60004-1-Ig) and anti-β-tubulin (#10094-1-AP) were purchased from Proteintech Group, Inc. (Rosemont, IL 60018, USA). The results were quantified by densitometry using ImageJ software (NIH).

NF-κB signaling pathway = assay: NF-κB luciferase reporter assay in 293T cells; type: cell-based; settings: TNF-α 10 ng/mL, 6 h, SIAIS361034 10 μM, BAY 11-7082 20 μM
Protocol: (§2) Cells seeded in 96-well plates were treated with various treatments as indicated. The luciferase activity in the cell lysates was measured using Dual-Luciferase Reporter Assay System (Promega, Madison, WI, USA) according to the manufacturer's instructions in a luminometer (Molecular Devices, Sunnyvale, CA). The firefly luciferase values were normalized to Renilla values. […]
Data represent mean ± SD (n = 3). (B) NF-κB luciferase analysis of the effect of SIAIS361034 on NF-κB signaling pathway in 293T cells.The 293T cells were transfected with NF-κB luciferase reporter and Renilla-TK plasmids and […]
μM) for 6 h. Data represent mean ± SD (n = 3). […]
(§3) Data represent mean ± SD (n = 3).
(§4) (1 picture or pasted object on this page, not shown here)

[1] = test system: bone growth of young mice; assay: Bone growth of young mice (body weight, Micro-CT, H&E, IHC); type: in vivo, mouse; settings: for body size: 5-week-old mice after treatment from P12 to P16; for femur length (Micro-CT, in words): mice at 6 weeks of age, treated P12 to P16; for levels of Bcl-xL in femurs (IHC): mice treated P12 to P16; for expression levels of Gli1 in femurs (IHC): mice treated P12 to P16, compared with Vehicle
Protocol: Skeleton Micro-CT images of mice were taken under anesthesia. The femurs were fixed and stored in 4% PFA at 4 °C. Mice and femurs were scanned using Inveon PET-CT (Siemens). Bone tissues were computed with Inveon Acquisition Workplace (IAW). Image data were visualized and analyzed by Inveon Viewer.
Femurs were fixed in 4% PFA and decalcified in 14% EDTA for 2 weeks at 4 °C. Bone tissues were embedded in paraffin. Thin sections were stained with hematoxylin and eosin (H&E) according to the manufacturer's instructions. For immunohistochemistry (IHC), paraffin-embedded sections of femurs were baked at 60 °C for 20 min, deparaffinized by xylene for 25 min, rehydrated through ethanol series, and incubated with citrate buffer at 95 °C for 20 min for antigen retrieval. Sections were incubated with the primary antibodies as indicated overnight at 4 °C, followed by goat anti-rabbit secondary antibody. The primary antibodies used in this study include Bcl-xL (1:2000, ab178844, Abcam) and Gli1 (1:100, 101156-T10, Sino Biological).

[2] = test system: SmoA1 (Smo W539L) medulloblastoma tumor; assay: SmoA1 medulloblastoma allograft in nude mice; type: in vivo, mouse
Source text: For in vivo SmoA1 MB allograft studies, SmoA1 spontaneous MB tumors were obtained from ND2:SmoA1 transgenic mice as previously described. Male nude mice (4 to 5 weeks of age) were purchased from Shanghai Lingchang Biotechnology Co. (Shanghai, China). Spontaneous tumors were harvested and subcutaneously allografted into nude mice. When the tumor volumes reached approximately 2000 mm^3, they were harvested and further subcutaneously allografted into nude mice. When the tumor volumes reached about 150 to 200 mm^3, the tumor-bearing mice were randomly assigned into vehicle and treatment groups. Mice were weighed every 3 days. Tumor size was measured once every 3 days using microcaliper. Tumor volume (V) was determined using the following formula: V = (L×W^2) ×0.5, where L is length, and W is width in mm. Tumor tissues were harvested 6 h after the last dosage to examining Gli1 mRNA expression and protein levels. SIAIS361034 for i.p. administration was formulated in 0.5% sodium carboxymethyl cellulose (CMC-Na). All in vivo studies above were approved by and conformed to the policies and regulations of the Animal Care and Use Committee of Fudan University, China.

[3] = test system: hair growth and Hh pathway activity in skin; assay: Depilatory mouse model; type: in vivo
Protocol: For Depilatory model studies, male C57BL/6J mice (7 to 8 weeks of age) were purchased from Shanghai Lingchang Biotechnology Co. (Shanghai, China). After 2 days of acclimation, only healthy mice were used in the experiment. The back skin of the anesthetized mice was shaved and depilated using the depilatory Nair (Church & Dwight Co., Inc.). After 4 days, the depilated mice were randomized into groups for treatments as indicated. The back skin phenotypes were recorded by taking pictures every 3 days. Skin tissues were harvested 6 h after the last dosage to examining Gli1 mRNA expression as well as Gli1 and Bcl-xL protein levels.

[4] = test system: medulloblastoma sensitive to Smo inhibitors; design: method as in PMID 19716296; settings: GDC-0449 50 mg/kg; cited from earlier work
[5] = test system: Hh pathway (Gli-luciferase) provoked by Gli2; assay: Dual luciferase reporter assay, Hh activity initiated by ectopic Gli2-HA in light II cells; type: cell-based; settings: for IC50: ectopic Gli2-HA, 36 h
Source text: (§5) The TCF/LEF luciferase reporter plasmid, NF-κB luciferase reporter plasmid, and TK-Renilla luciferase plasmid were purchased from Promega (Madison, WI, USA). Smo plasmid was purchased from Origene (Rockville, MD, USA). The Smo mutant plasmids were generated from wild type Smo plasmid using QuickChange Site-Directed Mutagenesis kit from Agilent (Santa Clara, CA, USA) and confirmed by sequencing. Information on Smo mutants plasmids is provided in Supplementary data 2. The Gli1 plasmid and Gli2-HA plasmid were obtained from Addgene (Cambridge, MA, USA). Transient transfections were performed by Lipofectamine 2000 reagent from Invitrogen (Grand Island, NY, USA) according to the manufacturer's instructions.
(§6) Cells seeded in 96-well plates were treated with various treatments as indicated. The luciferase activity in the cell lysates was measured using Dual-Luciferase Reporter Assay System (Promega, Madison, WI, USA) according to the manufacturer's instructions in a luminometer (Molecular Devices, Sunnyvale, CA). The firefly luciferase values were normalized to Renilla values.

[6] = test system: Hh pathway (Gli-luciferase) provoked by Smo WT / Smo mutants; assay: Dual luciferase reporter assay, Hh activity induced by ectopic Smo WT or Smo mutants in light II cells; type: cell-based; settings: Smo WT, D473H, H231R, W281C, W535L, L412F, F460L, GDC-0449 10 μM (Figure S3B-D)
Source text: as §5, §6

Wnt signaling pathway = assay: TCF/LEF luciferase reporter assay in LS174T cells; type: cell-based; settings: PGE2 1 μM, 24 h, SIAIS361034 10 μM, H-89 20 μM
Protocol: as §2
μM) for 6 h. Data represent mean ± SD (n = 3). (C) TCF/LEF luciferase analysis of the effect of SIAIS361034 on Wnt signaling pathway in LS174T cells. The LS174T cellswere transfected with TCF/LEF luciferase reporter and Renilla-TK plasmids and […]
as §3, §4

Gli1 = assay: Western blot of Gli1 in light II cells; type: cell-based; settings: 1 µM
Protocol: as §1

[7] = test system: Hh pathway (Gli-luciferase) in light II cells; assay: Dual luciferase reporter assay, Gli-luciferase provoked by SAG in light II cells; type: cell-based; settings: SAG 100 nM; for effect of pretreatment on Gli-luciferase activity suppressed by SIAIS361034: pretreated 2 h with MG132 1 µM or Pomalidomide 10 µM, then SIAIS361034 1 µM
Protocol: as §6

SMILES: CC1(C)CCC(c2ccc(Cl)cc2)=C(CN2CCN(c3ccc(C(=O)NS(=O)(=O)c4ccc(N[C@H](CCN5CCOCC5)CSc5ccccc5)c(S(=O)(=O)C(F)(F)F)c4)cc3)CC2)C1 [ABT-263, reference compound]
number of platelets (platelets): severe thrombocytopenia
effect of pretreatment on SIAIS361034-induced Bcl-xL degradation (Bcl-xL): abolished the SIAIS361034-induced Bcl-xL degradation

SMILES: Cc1ccc(S(=O)(=O)/C=C/C#N)cc1 [BAY 11-7082, reference compound]
NF-κB luciferase activity activated by TNF-α (NF-κB signaling pathway): significantly impeded

SMILES: Cc1ncsc1-c1ccc([C@H](C)NC(=O)[C@@H]2C[C@@H](O)CN2C(=O)[C@@H](NC(=O)CCCCCC(=O)N2CCN(CC[C@H](CSc3ccccc3)Nc3ccc(S(=O)(=O)NC(=O)c4ccc(N5CCN(CC6=C(c7ccc(Cl)cc7)CCC(C)(C)C6)CC5)cc4)cc3S(=O)(=O)C(F)(F)F)CC2)C(C)(C)C)cc1 [DT2216]
body size [1]: smaller body sizes
femur length (Micro-CT, in words) [1]: obvious shortening of the femur
levels of Bcl-xL in femurs (IHC) [1]: reduced
expression levels of Gli1 in femurs (IHC) [1]: significantly suppressed
rate of weight growth ([1]; young mice treated from P12 to P16): decelerated the rate of weight growth

IC50 [5]: > 10 µM
SMILES: CS(=O)(=O)c1ccc(C(=O)Nc2ccc(Cl)c(-c3ccccn3)c2)c(Cl)c1 [GDC-0449, reference compound]
growth of SmoA1 tumors ([2]; nude mice, SIAIS361034 50 mg/kg, GDC-0449 50 mg/kg p.o.): obvious resistance
expression of Gli1 mRNA in tumor tissues ([2]; tumors harvested 6 h after the last dosage, RT-qPCR): no alteration
hair growth during depilation-induced hair regeneration ([3]; male C57BL/6J mice, administered after 4 days of depilation): significantly retarded hair growth
Gli1 and Bcl-xL protein levels in skin tissues ([3]; skin harvested 6 h after the last dosage, western blot): no effect on the levels of Bcl-xL
TGI [4]: 100%
Hh activity evoked by ectopic expression of Gli2 [5]: no effect
Hh activity provoked by wild type Smo and Smo mutants [6]: little appreciable effect
body size [1]: smaller body sizes
femur length (Micro-CT, in words) [1]: obvious shortening of the femur
levels of Bcl-xL in femurs (IHC) [1]: No change
expression levels of Gli1 in femurs (IHC) [1]: significantly suppressed

SMILES: O=S(=O)(NCCNC/C=C/c1ccc(Br)cc1)c1cccc2cnccc12 [H-89, reference compound]
TCF/LEF luciferase activity (Wnt signaling) activated by PGE2 (Wnt signaling pathway): significantly inhibited

SMILES: Cc1sc2c(c1C)C(c1ccc(Cl)cc1)=N[C@@H](CC(=O)OC(C)(C)C)c1nnc(C)n1-2 [JQ1, reference compound]
Gli1 protein level (Gli1): reduced Gli1 protein

SMILES: CC(C)C[C@@H](C=O)NC(=O)[C@H](CC(C)C)NC(=O)[C@H](CC(C)C)NC(=O)OCc1ccccc1 [MG132, reference compound] (Cbz-Leu-Leu-Leu-aldehyde)
effect of pretreatment on Gli-luciferase activity suppressed by SIAIS361034 [7]: abolished the suppressed Gli-luciferase activity
effect of pretreatment on SIAIS361034-induced Bcl-xL degradation (Bcl-xL): obviously abolished SIAIS361034-induced Bcl-xL degradation

SMILES: Nc1cccc2c1C(=O)N(C1CCC(=O)NC1=O)C2=O (centres unmarked) [Pomalidomide, reference compound]
effect of pretreatment on Gli-luciferase activity suppressed by SIAIS361034 [7]: abolished the suppressed Gli-luciferase activity
effect of pretreatment on SIAIS361034-induced Bcl-xL degradation (Bcl-xL): obviously abolished SIAIS361034-induced Bcl-xL degradation

IC50 ([7]; 36 h, read-out: IC50 value inhibiting the Gli-luciferase activity provoked by SAG): 3.16 µM
IC50 [5]: 1.77 µM
Bcl-xL degradation (Bcl-xL; 1 µM, western blot): failed to degrade Bcl-xL
SMILES: CN1C(=O)CCC(N2Cc3c(C#CCCCN4CCN(CCCNc5ccc(S(=O)(=O)NC(=O)c6ccc(N7CCN(CC8=C(c9ccc(Cl)cc9)CCC(C)(C)C8)CC7)cc6)cc5S(=O)(=O)C(F)(F)F)CC4)cccc3C2=O)C1=O (centres unmarked) [SIAIS361034NC]
